Values joined by “and” are separate entries in the source; they are usually repeats but may differ in a detail not shown here. Equal entries are not always repeated. Where two headings read alike, the source gives them in different places.
What was measured:
[1] = Part A: effect of strong CYP3A inducer rifampin on single-dose pamiparib plasma PK (phase 1 DDI study); type: in vivo, human (patients with advanced solid tumors); conditions: for Tmax: read-out: pamiparib tmax, median (range)
Procedure: This was an open-label, parallel-group, phase 1 study consisting of a 2-part core phase and an extension phase. Only results for the core phases are reported herein (Supplementary Fig. 1). […] Blood samples for PK analysis were obtained on days 1 and 10 at predose, and at 0.5, 1, 2, 4, 6, 9, 12, 24, and 48 h postdose. Pamiparib plasma concentrations were determined using a validated liquid chromatography–mass spectrometry/mass spectrometry method (lower limit of quantification 1.0 ng/mL) at Covance Laboratory Services (Salt Lake City, Utah). […]
(§1) The safety population included all patients who received at least one dose of pamiparib. […] Plasma PK parameters were calculated from pamiparib concentration–time profiles using standard noncompartmental methods. PK parameters were calculated using Phoenix WinNonlin v6.4 or higher (Certara, Princeton, NJ, USA). […] Data for each treatment part were analyzed separately. Log-transformed AUC and Cmax values were analyzed using a linear mixed-effect model analysis assuming a fixed effect for treatment and a random effect for patients. The study design called for ~ 24 patients (12 in each part) to be enrolled to ensure at least 20 (10 in each part) completed the study. This sample size was based on the precedent set by other PK studies of a similar nature and was not based on power calculations.

[2] = Part B: effect of strong CYP3A inhibitor itraconazole on single-dose pamiparib plasma PK (phase 1 DDI study); type: in vivo, human (patients with solid tumors); conditions: for half-life / AUC(0-inf) / AUC(0-t) / Tmax / Cmax: human; for half-life / AUC(0-inf) / AUC(0-t) / Tmax: plasma, oral; for AUC(0-inf): N = 12, read-out: pamiparib AUC0-inf, GLSM (% CV); for AUC(0-t): N = 12, read-out: pamiparib AUC0-tlast, GLSM (% CV); for Tmax: N = 12, read-out: pamiparib tmax, median (range); for Cmax: N = 12, plasma, read-out: pamiparib Cmax, GLSM (% CV)
Procedure: Part B of the core phase assessed the effect of the strong CYP3A inhibitor itraconazole on the PK of pamiparib in patients with solid tumors. All patients received a single dose of oral pamiparib 20 mg on days 1 and 7, and oral itraconazole 200 mg QD on days 3–8. The 20-mg pamiparib dose, the lowest dose strength available and one-sixth of the highest phase 1 dose (120 mg), was deemed sufficient to cover the plasma exposure increase due to complete blockade of CYP3A by itraconazole. Part B patients fasted for at least 8 h before and at least 4 h after pamiparib administration, except for day 7 upon which itraconazole administration occurred ~ 30 min after completing a meal and pamiparib administration followed within 5 min of itraconazole administration. Blood samples for PK analysis were obtained on days 1 and 7 at the same time points listed above for Part A. After completing the core phase in Part A and Part B, patients were offered participation in the extension phase, in which they were to receive pamiparib PO BID in 28-day cycles until disease progression, unacceptable toxicity, withdrawal of consent, or any other reason for discontinuation. […]
as §1

[3] = Part A safety: adverse events (NCI CTCAE v5.0), safety population; type: in vivo, human (patients with advanced solid tumors)
Procedure: This was an open-label, parallel-group, phase 1 study consisting of a 2-part core phase and an extension phase. Only results for the core phases are reported herein (Supplementary Fig. 1). […] Blood samples for PK analysis were obtained on days 1 and 10 at predose, and at 0.5, 1, 2, 4, 6, 9, 12, 24, and 48 h postdose. Pamiparib plasma concentrations were determined using a validated liquid chromatography–mass spectrometry/mass spectrometry method (lower limit of quantification 1.0 ng/mL) at Covance Laboratory Services (Salt Lake City, Utah).
(§2) Adverse events (AEs) were monitored throughout the study and were graded according to the National Cancer Institute Common Terminology Criteria v5.0.
as §1

[4] = Part B safety: adverse events (NCI CTCAE v5.0), safety population; type: in vivo, human (patients with solid tumors)
Procedure: Part B of the core phase assessed the effect of the strong CYP3A inhibitor itraconazole on the PK of pamiparib in patients with solid tumors. All patients received a single dose of oral pamiparib 20 mg on days 1 and 7, and oral itraconazole 200 mg QD on days 3–8. The 20-mg pamiparib dose, the lowest dose strength available and one-sixth of the highest phase 1 dose (120 mg), was deemed sufficient to cover the plasma exposure increase due to complete blockade of CYP3A by itraconazole. Part B patients fasted for at least 8 h before and at least 4 h after pamiparib administration, except for day 7 upon which itraconazole administration occurred ~ 30 min after completing a meal and pamiparib administration followed within 5 min of itraconazole administration. Blood samples for PK analysis were obtained on days 1 and 7 at the same time points listed above for Part A. After completing the core phase in Part A and Part B, patients were offered participation in the extension phase, in which they were to receive pamiparib PO BID in 28-day cycles until disease progression, unacceptable toxicity, withdrawal of consent, or any other reason for discontinuation.
as §2, §1

[5] = set-up: method as in earlier work; conditions: cited from earlier work
[6] = test system: poly(ADP-ribose) synthesis in peripheral blood mononuclear cells; set-up: method as in earlier work; conditions: pamiparib doses of 10 mg or higher; cited from earlier work
[7] = test system: P-glycoprotein; set-up: method as in PMID 32652442; conditions: cited from earlier work
[8] = test system: cytochromes P450 3A (CYP3A) and P450 2C8; set-up: method as in unpublished data; conditions: in vitro phenotyping study; ref unpublished data; cited from earlier work
[9] = set-up: method as in not given; conditions: in vitro and animal studies; ref not given; cited from earlier work
[10] = Part A, rifampin 600 mg QD coadministration
[11] = pamiparib 20 mg alone, day 1, reference
[12] = pamiparib 20 mg day 7 with itraconazole 200 mg QD, test
[13] = Part A (N = 12), by treatment period
[14] = Part B (N = 13; N = 12 for pamiparib with itraconazole), by treatment period

reduction of pamiparib plasma exposure (AUC) with rifampin coadministration ([1]; Part A, AUC0-tlast to AUC0-inf): 38–43%
reduction of pamiparib AUC0-inf (geometric mean) with rifampin versus day 1 [1, 10]: ~43%
reduction of pamiparib AUC0-tlast (geometric mean) with rifampin versus day 1 [1, 10]: ~ 38% and 38%
half-life ([1]; human, plasma, oral, 60 mg, Part A, pamiparib 60 mg alone, day 1, reference, N = 9, read-out: pamiparib t1/2, median (range) (converted)): 13.4 h
half-life ([1]; human, plasma, oral, 60 mg, Part A, pamiparib 60 mg alone, read-out: pamiparib mean t1/2 (converted)): 12.5 h
half-life ([1]; human, plasma, oral, Part A, pamiparib 60 mg day 10 with rifampin 600 mg QD, test, N = 11, read-out: pamiparib t1/2, median (range) (converted)): 7.7 h
half-life ([1]; human, plasma, oral, Part A, pamiparib 60 mg in combination with rifampin, read-out: pamiparib mean t1/2 (converted)): 7.94 h
AUC(0-inf) ([1]; human, plasma, oral, Part A, pamiparib 60 mg alone, day 1, reference, N = 9, read-out: pamiparib AUC0-inf, GLSM (% CV)): 29500 ng·h/mL
AUC(0-t) ([1]; human, plasma, oral, Part A, pamiparib 60 mg alone, day 1, reference, N = 11, read-out: pamiparib AUC0-tlast, GLSM (% CV)): 28800 ng·h/mL
Tmax ([1]; human, plasma, oral, Part A, pamiparib 60 mg alone, day 1, reference, N = 11): 2 h
Tmax ([1]; human, plasma, oral): 2 h
Cmax ([1]; human, Part A, single oral pamiparib 60 mg alone, day 1, reference, N = 11, plasma, read-out: pamiparib Cmax, GLSM (% CV)): 1990 ng/mL
half-life ([2]; 20 mg, pamiparib 20 mg alone, day 1, reference, N = 12, read-out: pamiparib t1/2, median (range) (converted)): 9.3 h
AUC(0-inf) [2, 11]: 8440 ng·h/mL
AUC(0-t) [2, 11]: 7840 ng·h/mL
Tmax [2, 11]: 2 h
AUC(0-inf) [2, 12]: 8380 ng·h/mL
AUC(0-t) [2, 12]: 7790 ng·h/mL
half-life ([2]; pamiparib 20 mg day 7 with itraconazole 200 mg QD, test, N = 12, read-out: pamiparib t1/2, median (range) (converted)): 11.2 h
Tmax [2, 12]: 1 h
half-life ([2]; pamiparib 20 mg in combination with itraconazole, read-out: pamiparib mean t1/2 (converted)): 12 h
Cmax ([2]; single oral pamiparib 20 mg alone, day 1, reference): 665 ng/mL
Cmax ([2]; single oral pamiparib 20 mg on day 7 with itraconazole 200 mg QD (days 3-8), test): 699 ng/mL
pamiparib mean t1/2 ([2]; pamiparib 20 mg alone): 11.9 h
Compound: C[C@]12CCCN1CC1=NNC(=O)c3cc(F)cc4[nH]c2c1c34 [Pamiparib]
All TEAEs (any grade), patients [3, 13]: 1 (8.3) n (%)
Any treatment-related TEAE, patients [3, 13]: 0 n (%)
Grade >= 3 TEAE, patients [3, 13]: 0 n (%)
Serious AE, patients [3, 13]: 0 n (%)
Treatment-related TEAE related to both, patients [3, 13]: 0 n (%)
Treatment-related TEAE related to pamiparib only, patients [3, 13]: 0 n (%)
Treatment-related TEAE related to rifampin only, patients [3, 13]: 0 n (%)
tolerability ([3]; single dose 60 mg pamiparib alone or coadministered with 600 mg rifampin): well tolerated
All TEAEs (any grade), patients [4, 14]: 2 (15.4) n (%)
Any treatment-related TEAE, patients [4, 14]: 1 (7.7) n (%)
Grade >= 3 TEAE, patients [4, 14]: 0 n (%)
Serious AE, patients [4, 14]: 0 n (%)
Treatment-related TEAE related to both, patients [4, 14]: 0 n (%)
Treatment-related TEAE related to itraconazole only, patients [4, 14]: 0 n (%)
Treatment-related TEAE related to pamiparib only, patients [4, 14]: 1 (7.7) n (%)
Serious AE related to both, patients ([4]; Part B, by treatment period): 0 n (%)
Serious AE related to itraconazole only, patients ([4]; Part B, by treatment period): 0 n (%)
Serious AE related to pamiparib only, patients ([4]; Part B, by treatment period): 0 n (%)
tolerability ([4]; single dose 20 mg pamiparib alone or coadministered with 200 mg itraconazole): well tolerated
accumulation ratio for AUC (95% CI) ([5]; 60 mg BID): 2.37 (95% CI, 1.61–3.50)
accumulation ratio for Cmax (95% CI) ([5]; 60 mg BID): 1.99 (95% CI, 1.47–2.69)
geometric mean half-life ([5]; 60 mg BID): 13.5 h
tolerability ([5]; first-in-human study): well tolerated
median time to maximum concentration (tmax) ([5]; first-in-human study, oral): 1 to 2 h
anti-tumor activity ([5]; patients with high-grade epithelial non-mucinous ovarian cancer): preliminary anti-tumor activity
sustained inhibition of poly(ADP-ribose) synthesis in peripheral blood mononuclear cells [6]: ~ 80%
P-glycoprotein substrate status [7]: not a substrate of P-glycoprotein
enzymes mediating metabolism [8]: primarily mediated by cytochromes P450 3A (CYP3A) and P450 2C8
clastogenicity [9]: clastogenic activity

— publication PMC8149352 (Cancer Chemotherapy and Pharmacology, 2021)
